# In publication PMC7558535, “In Vitro Metabolism of DWP16001, a Novel Sodium-Glucose Cotransporter 2 Inhibitor, in Human and Animal Hepatocytes” (Pharmaceutics, 2020):
# Target: T1, UGT2B7 (Homo sapiens, UniProt P16662)
# T1 construct: purchased Corning Life Sciences
# T1 sequence (P16662 24-529): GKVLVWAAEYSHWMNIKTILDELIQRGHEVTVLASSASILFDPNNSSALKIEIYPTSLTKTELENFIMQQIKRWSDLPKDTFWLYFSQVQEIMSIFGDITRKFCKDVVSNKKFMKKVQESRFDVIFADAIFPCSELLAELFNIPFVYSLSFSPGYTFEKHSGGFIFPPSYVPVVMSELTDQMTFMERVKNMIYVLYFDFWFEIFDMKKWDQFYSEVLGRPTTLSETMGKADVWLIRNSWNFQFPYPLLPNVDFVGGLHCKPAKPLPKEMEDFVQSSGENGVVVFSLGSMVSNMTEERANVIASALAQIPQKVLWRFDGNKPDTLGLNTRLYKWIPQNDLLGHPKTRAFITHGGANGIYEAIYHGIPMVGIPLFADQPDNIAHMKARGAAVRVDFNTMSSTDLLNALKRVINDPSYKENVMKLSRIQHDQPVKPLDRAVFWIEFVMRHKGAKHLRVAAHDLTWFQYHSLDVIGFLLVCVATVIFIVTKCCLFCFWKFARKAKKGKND
# Assay: UGT screening, cDNA-expressed UGT2B7
# Format: in vitro ADME
# Description: To screen for UGT enzymes responsible for glucuronidation of DWP16001, 100 μL of reaction mixtures containing 13 human cDNA-expressed UGT enzymes (1A1, 1A3, 1A4, 1A6, 1A7, 1A8, 1A9, 1A10, 2B4, 2B7, 2B10, 2B15, and 2B17) at 0.1 mg protein/mL, 5 mM UDPGA, 0.025 mg/mL alamethicin, and 25 μM DWP16001 or M1 in 50 mM Tris buffer (pH 7.4) were incubated at 37 °C for 30 min in triplicate. Reactions were stopped by adding 100 μL of ketoconazole (internal standard, 200 ng/mL) in acetonitrile, followed by vortex-mixing and centrifugation (15,000× g, 8 min, 4 °C). The supernatant (75 μL) was diluted with equal volume of 30% acetonitrile and aliquots (5 μL) were injected into an LC-MS/MS system.
smiles,measurement,value
"OC[C@H]1O[C@@H](c2cc(Cc3ccc(C4CC4)cc3)c(Cl)c3c2CCO3)[C@H](O)[C@@H](O)[C@@H]1O [DWP16001, (2S,3R,4R,5S,6R)-2-(7-chloro-6-(4-cyclopropylbenzyl)-2,3-dihydrobenzofuran-4-yl)-6-(hydroxymethyl)tetrahydro-2H-pyran-3,4,5-triol]",Substrate of UGT2B7,substrate
